Measurements as given in patent US9120805B2, “Substituted pyrrolo[1,2-A]pyrazin-1-ones and pyrazolo[1,5-A]pyrazin-4-ones as inhibitors of tankyrase and poly(ADP-ribose)polymerase activity” (Merck Patent GmbH, priority 2012, dated 2015).

Target: T1, GST-tagged Tankyrase-1 (1023-1327 aa) (Homo sapiens, UniProt O95271)
T1 construct: GST-tagged Tankyrase-1 (1023-1327 aa)
Test: Tankyrase 1 autoparsylation assay (HTRF enzyme assay)
Type: biochemical
Method in brief: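 ~250 nM GST-tagged enzyme with 5 μM biotin-NAD in HEPES/Mg/DTT buffer pH 7.7, 10 compound concentrations, 90 min at 30 °C; EDTA stop. Eu-anti-GST/streptavidin-Xlent HTRF read (665/615 ratio) after 1 h RT. IC50 relative to inhibitor-free reaction and 5 μM XAV-939 as zero.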

T1 sequence (O95271 1023-1327): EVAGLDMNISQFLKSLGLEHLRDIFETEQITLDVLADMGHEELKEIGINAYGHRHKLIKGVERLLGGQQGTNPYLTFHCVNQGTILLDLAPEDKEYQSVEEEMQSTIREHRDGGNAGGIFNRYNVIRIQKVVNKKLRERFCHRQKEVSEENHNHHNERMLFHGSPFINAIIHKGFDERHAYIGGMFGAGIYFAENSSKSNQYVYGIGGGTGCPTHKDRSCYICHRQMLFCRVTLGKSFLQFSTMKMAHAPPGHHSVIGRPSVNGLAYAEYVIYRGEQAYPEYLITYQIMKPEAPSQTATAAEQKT

Structure (SMILES) | IC50
CC(C)(C)c1ccc(-c2cn3cccc3c(=O)[nH]2)cc1 [Compound A11, 3-(4-tert-butyl-phenyl)-2H-pyrrolo[1,2-a]pyrazin-1-one] | < 300 nM
Cc1ccc(-c2cn3cccc3c(=O)[nH]2)cc1 [Compound A12, 3-p-tolyl-2H-pyrrolo[1,2-a]pyrazin-1-one] | < 300 nM
Cn1cc(-c2ccc(-c3cn4cccc4c(=O)[nH]3)cc2)cn1 [Compound A25, 3-[4-(1-methyl-1H-pyrazol-4-yl)-phenyl]-2H-pyrrolo[1,2-a]pyrazin-1-one] | < 300 nM
CC(C)(O)c1ccc(-c2cn3cccc3c(=O)[nH]2)cc1 [Compound A29, 3-[4-(1-hydroxy-1-methyl-ethyl)-phenyl]-2H-pyrrolo[1,2-a]pyrazin-1-one] | < 300 nM
CC(C)(C)c1ccc(-c2cn3cc(F)cc3c(=O)[nH]2)cc1 [Compound A35, 3-(4-tert-butyl-phenyl)-7-fluoro-2H-pyrrolo[1,2-a]pyrazin-1-one] | < 300 nM
Cc1cc2c(=O)[nH]c(-c3ccc(C(C)(C)O)cc3)cn2n1 [Compound A46, 6-[4-(1-hydroxy-1-methyl-ethyl)phenyl]-2-methyl-5H-pyrazolo[1,5-a]pyrazin-4-one] | < 300 nM
Cc1cc2c(=O)[nH]c(-c3ccc(C(C)(C)O)cc3)cn2c1 [Compound A56, 3-[4-(1-hydroxy-1-methyl-ethyl)-phenyl]-7-methyl-2H-pyrrolo[1,2-a]pyrazin-1-one] | < 300 nM
CC(C)(O)c1ccc(-c2cn3cc(F)cc3c(=O)[nH]2)cc1 [Compound A59, 7-fluoro-3-[4-(1-hydroxy-1-methyl-ethyl)-phenyl]-2H-pyrrolo[1,2-a]pyrazin-1-one] | < 300 nM
CC(C)(O)c1ccc(-c2cn3cc(Cl)cc3c(=O)[nH]2)cc1 [Compound A60, 7-chloro-3-[4-(1-hydroxy-1-methyl-ethyl)-phenyl]-2H-pyrrolo[1,2-a]pyrazin-1-one] | < 300 nM
CCC(O)(CC)c1ccc(-c2cn3cc(F)cc3c(=O)[nH]2)cc1 [Compound A61, 3-[4-(1-ethyl-1-hydroxy-propyl)-phenyl]-7-fluoro-2H-pyrrolo[1,2-a]pyrazin-1-one] | < 300 nM
CC(C)(F)c1ccc(-c2cn3cc(F)cc3c(=O)[nH]2)cc1 [Compound A63, 7-fluoro-3-[4-(1-fluoro-1-methyl-ethyl)-phenyl]-2H-pyrrolo[1,2-a]pyrazin-1-one] | < 300 nM
CC(C)(OCCO)c1ccc(-c2cn3cc(F)cc3c(=O)[nH]2)cc1 [Compound A70, 7-fluoro-3-{4-[1-(2-hydroxy-ethoxy)-1-methyl-ethyl]-phenyl}-2H-pyrrolo[1,2-a]pyrazin-1-one] | < 300 nM
COCCOC(C)(C)c1ccc(-c2cn3cc(F)cc3c(=O)[nH]2)cc1 [Compound A71, 7-fluoro-3-{4-[1-(2-methoxy-ethoxy)-1-methyl-ethyl]-phenyl}-2H-pyrrolo[1,2-a]pyrazin-1-one] | < 300 nM
CC(C)(N)c1ccc(-c2cn3cc(F)cc3c(=O)[nH]2)cc1 [Compound A72, 3-[4-(1-amino-1-methyl-ethyl)-phenyl]-7-fluoro-2H-pyrrolo[1,2-a]pyrazin-1-one] | < 300 nM
CC1(c2ccc(-c3cn4cc(F)cc4c(=O)[nH]3)cc2)CCCO1 (centres unmarked) [Compound A73, 7-fluoro-3-[4-(2-methyl-tetrahydro-furan-2-yl)-phenyl]-2H-pyrrolo[1,2-a]pyrazin-1-one] | < 300 nM
O=c1[nH]c(-c2ccc(C3CCNCC3)cc2)cn2cccc12 [Compound A75, 3-(4-piperidin-4-yl-phenyl)-2H-pyrrolo[1,2-a]pyrazin-1-one] | < 300 nM
O=c1[nH]c(-c2ccc(C3CCNC3)cc2)cn2cccc12 (centres unmarked) [Compound A76, 3-(4-Pyrrolidin-3-yl-phenyl)-2H-pyrrolo[1,2-a]pyrazin-1-one] | < 300 nM
CN1CCC(c2ccc(-c3cn4cccc4c(=O)[nH]3)cc2)CC1 [Compound A79, 3-[4-(1-methyl-piperidin-4-yl)-phenyl]-2H-pyrrolo[1,2-a]pyrazin-1-one] | < 300 nM
CN1CCC(c2ccc(-c3cn4cccc4c(=O)[nH]3)cc2)C1 (centres unmarked) [Compound A80, 3-[4-(1-methyl-pyrrolidin-3-yl)-phenyl]-2H-pyrrolo[1,2-a]pyrazin-1-one] | 300 to 3000 nM
O=c1[nH]c(-c2ccc(C3(O)CCC3)cc2)cn2cccc12 [Compound A111] | < 300 nM
